Results taken from patent US20120245137A1 (Zalicus Pharmaceuticals Ltd., priority 2009, published 2012).

Key:
Type in all cases: cell-based
[1] = target: human α1H T-type channels (Homo sapiens, UniProt O95180); experiment: T-type calcium channel block, whole cell patch clamp, α1H; details: HEK cells stably expressing human α1H; mainly non-inactivated protocol; values above 10,000 nM represented as 10000
Procedure, shortened: (§1)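 Blockade of T-type current was measured in human α1G- or α1H-expressing HEK 293 cells using whole-cell recording with ~5 MΩ pipettes. Test compounds, dissolved in external solution containing 0.1-0.01% DMSO, were applied close to the cell, and block was examined under both non-inactivating and inactivating voltage protocols.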

[2] = target: human α1G T-type channels (Homo sapiens, UniProt O43497); experiment: T-type calcium channel block, whole cell patch clamp, α1G; details: HEK cells stably expressing human α1G; mainly non-inactivated protocol; values above 10,000 nM represented as 10000
Procedure, shortened: as §1

[3] = target: N-type calcium channel subunits (α1B, α2δ, and β3a) (Homo sapiens, UniProt Q00975); experiment: Block of Cav2.2 channel, whole cell voltage clamp, manual and PatchXpress; details: Table 5; table follows Assay Example 3 (whole cell voltage clamp / PatchXpress); assay not given
Procedure, shortened: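 Percent block taken as current amplitude ratio with versus without compound, applied in rising doses; IC50 fitted where one cell received multiple doses. Protocol: 50 ms pulses to +20 mV at 0.067 Hz from […] or −90 mV holding; P/n leak subtraction, no junction-potential correction; manual and PatchXpress recordings.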

Chain of human α1G T-type channels (O43497 whole entry): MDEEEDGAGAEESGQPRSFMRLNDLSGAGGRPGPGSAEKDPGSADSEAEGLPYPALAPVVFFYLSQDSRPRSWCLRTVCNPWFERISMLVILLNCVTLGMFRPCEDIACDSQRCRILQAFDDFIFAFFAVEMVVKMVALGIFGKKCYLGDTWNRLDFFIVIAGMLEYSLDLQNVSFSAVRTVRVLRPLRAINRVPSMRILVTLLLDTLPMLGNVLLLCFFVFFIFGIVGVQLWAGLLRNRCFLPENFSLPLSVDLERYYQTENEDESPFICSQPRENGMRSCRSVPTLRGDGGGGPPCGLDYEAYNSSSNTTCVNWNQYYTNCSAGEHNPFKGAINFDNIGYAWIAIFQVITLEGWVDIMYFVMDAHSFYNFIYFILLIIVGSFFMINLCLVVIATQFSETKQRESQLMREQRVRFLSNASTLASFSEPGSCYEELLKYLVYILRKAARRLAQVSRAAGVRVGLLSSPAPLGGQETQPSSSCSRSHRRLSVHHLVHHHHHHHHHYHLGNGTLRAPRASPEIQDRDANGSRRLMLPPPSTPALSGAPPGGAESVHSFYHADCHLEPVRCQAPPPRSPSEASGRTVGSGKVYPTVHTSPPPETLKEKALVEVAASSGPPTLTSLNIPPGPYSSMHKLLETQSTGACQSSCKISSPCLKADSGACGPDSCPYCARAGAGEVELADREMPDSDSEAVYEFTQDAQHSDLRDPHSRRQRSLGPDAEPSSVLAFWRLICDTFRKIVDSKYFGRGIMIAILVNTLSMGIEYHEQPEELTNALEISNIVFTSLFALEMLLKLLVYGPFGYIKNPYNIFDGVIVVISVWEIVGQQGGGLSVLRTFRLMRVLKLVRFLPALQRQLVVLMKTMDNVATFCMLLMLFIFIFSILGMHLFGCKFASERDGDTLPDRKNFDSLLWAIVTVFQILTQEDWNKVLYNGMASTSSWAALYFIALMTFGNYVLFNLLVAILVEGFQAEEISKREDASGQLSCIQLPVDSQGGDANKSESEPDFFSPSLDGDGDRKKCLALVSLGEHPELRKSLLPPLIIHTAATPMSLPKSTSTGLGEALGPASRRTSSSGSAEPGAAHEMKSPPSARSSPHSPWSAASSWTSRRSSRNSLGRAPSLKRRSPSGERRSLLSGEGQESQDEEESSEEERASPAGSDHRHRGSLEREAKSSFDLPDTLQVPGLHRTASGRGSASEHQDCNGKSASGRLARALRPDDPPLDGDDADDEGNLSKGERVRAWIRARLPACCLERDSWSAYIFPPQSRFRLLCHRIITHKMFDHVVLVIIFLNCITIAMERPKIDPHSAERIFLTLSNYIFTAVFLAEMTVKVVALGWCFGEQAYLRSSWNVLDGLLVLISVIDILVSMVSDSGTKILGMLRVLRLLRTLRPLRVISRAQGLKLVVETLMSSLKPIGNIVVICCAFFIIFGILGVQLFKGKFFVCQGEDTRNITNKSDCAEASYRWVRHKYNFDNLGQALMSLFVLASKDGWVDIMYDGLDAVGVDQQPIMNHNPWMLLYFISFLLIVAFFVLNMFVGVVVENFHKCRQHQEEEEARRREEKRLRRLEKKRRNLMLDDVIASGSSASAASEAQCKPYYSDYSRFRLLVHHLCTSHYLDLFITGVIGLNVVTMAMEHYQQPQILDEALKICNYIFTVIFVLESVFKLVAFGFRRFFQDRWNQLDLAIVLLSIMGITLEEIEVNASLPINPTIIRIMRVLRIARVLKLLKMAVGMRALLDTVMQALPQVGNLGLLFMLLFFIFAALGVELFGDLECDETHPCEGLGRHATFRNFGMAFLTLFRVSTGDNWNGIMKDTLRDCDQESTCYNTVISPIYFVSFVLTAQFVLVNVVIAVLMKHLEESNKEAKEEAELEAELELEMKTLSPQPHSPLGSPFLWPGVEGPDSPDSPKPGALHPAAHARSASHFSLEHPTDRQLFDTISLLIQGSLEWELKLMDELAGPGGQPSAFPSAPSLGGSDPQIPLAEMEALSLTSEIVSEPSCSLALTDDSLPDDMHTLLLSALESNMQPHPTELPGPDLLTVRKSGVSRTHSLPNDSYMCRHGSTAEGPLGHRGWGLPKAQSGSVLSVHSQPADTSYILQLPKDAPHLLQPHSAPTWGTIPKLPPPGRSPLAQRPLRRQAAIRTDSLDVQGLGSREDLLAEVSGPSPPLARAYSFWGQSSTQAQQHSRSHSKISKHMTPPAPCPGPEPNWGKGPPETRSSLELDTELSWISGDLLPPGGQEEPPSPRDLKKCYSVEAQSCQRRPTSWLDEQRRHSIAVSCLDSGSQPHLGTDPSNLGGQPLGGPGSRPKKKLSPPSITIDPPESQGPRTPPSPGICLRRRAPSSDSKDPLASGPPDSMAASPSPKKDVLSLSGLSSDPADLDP
Chain of human α1H T-type channels (O95180 whole entry): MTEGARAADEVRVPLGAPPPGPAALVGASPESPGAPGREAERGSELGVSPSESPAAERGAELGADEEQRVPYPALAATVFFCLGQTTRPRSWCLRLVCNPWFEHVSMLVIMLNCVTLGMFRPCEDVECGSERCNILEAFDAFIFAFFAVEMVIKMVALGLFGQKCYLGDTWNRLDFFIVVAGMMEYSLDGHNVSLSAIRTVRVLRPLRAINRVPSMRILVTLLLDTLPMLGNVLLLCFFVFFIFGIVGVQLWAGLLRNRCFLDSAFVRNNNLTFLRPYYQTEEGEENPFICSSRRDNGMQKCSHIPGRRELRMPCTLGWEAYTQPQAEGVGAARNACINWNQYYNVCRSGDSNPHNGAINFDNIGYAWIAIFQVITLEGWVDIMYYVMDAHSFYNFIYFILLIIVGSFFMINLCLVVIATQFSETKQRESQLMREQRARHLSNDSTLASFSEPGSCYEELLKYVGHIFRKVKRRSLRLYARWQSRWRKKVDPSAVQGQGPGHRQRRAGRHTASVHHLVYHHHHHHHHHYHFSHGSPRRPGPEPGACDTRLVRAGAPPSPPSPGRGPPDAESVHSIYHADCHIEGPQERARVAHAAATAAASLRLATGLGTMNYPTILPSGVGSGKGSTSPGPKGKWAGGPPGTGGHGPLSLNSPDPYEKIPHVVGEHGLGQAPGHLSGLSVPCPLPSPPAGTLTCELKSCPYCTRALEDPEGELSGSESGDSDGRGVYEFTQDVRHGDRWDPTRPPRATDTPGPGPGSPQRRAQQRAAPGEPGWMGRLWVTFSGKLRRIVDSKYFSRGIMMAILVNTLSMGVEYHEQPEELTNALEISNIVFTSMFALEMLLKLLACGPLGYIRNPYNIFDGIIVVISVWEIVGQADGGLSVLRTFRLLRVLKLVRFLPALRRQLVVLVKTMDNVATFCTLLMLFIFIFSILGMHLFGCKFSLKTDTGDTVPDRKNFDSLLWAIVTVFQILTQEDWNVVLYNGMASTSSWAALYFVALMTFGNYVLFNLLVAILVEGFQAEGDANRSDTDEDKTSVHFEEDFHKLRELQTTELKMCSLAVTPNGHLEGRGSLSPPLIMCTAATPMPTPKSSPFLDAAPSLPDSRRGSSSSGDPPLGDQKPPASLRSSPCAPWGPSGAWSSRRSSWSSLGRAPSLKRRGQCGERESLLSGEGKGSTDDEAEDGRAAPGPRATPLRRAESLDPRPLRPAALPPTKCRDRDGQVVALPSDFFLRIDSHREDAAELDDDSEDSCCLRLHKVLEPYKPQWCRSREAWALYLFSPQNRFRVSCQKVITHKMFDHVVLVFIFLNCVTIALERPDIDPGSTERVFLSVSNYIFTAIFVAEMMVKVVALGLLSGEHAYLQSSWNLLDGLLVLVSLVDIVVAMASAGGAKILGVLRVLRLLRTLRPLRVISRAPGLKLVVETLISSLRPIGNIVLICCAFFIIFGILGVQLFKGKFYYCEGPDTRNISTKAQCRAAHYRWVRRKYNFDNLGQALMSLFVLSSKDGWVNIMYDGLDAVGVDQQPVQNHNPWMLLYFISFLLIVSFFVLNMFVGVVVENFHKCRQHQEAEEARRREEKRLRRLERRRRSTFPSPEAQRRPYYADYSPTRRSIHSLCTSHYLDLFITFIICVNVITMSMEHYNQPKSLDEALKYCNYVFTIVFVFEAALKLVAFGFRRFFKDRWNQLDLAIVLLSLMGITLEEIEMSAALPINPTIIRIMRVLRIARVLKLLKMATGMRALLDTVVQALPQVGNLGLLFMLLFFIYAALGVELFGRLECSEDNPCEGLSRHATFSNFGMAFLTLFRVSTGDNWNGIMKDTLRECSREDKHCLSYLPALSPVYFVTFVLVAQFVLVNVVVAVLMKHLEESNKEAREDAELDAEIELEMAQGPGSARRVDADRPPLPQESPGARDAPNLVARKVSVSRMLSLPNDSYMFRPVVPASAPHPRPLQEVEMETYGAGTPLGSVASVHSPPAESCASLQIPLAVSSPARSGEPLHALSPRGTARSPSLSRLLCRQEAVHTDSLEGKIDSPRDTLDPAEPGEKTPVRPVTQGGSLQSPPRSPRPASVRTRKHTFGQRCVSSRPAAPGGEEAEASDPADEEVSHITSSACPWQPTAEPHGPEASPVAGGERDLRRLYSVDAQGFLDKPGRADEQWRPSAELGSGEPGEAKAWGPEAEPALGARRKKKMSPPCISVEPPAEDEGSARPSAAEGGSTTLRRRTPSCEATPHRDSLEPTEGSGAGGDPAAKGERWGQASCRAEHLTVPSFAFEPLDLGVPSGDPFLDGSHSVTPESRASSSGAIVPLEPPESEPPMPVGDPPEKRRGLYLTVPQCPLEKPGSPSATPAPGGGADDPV

SMILES | IC50 [1] [nM] | IC50 [2] [nM] | IC50 [3] [nM]
Cc1nc(C(F)(F)F)ccc1NC(=O)[C@H]1C[C@H](S(=O)(=O)c2cccc(C(F)(F)F)c2)C1 [Compound 417, (1R,3R)-N-(2-methyl-6-(trifluoromethyl)pyridin-3-yl)-3-(3-(trifluoromethyl)phenylsulfonyl)cyclobutane carboxamide] | 4690 | > 10000 | 5440
CC(C)(C(=O)N[C@H]1CC[C@@](F)(S(=O)(=O)c2cccc(C(F)(F)F)c2)CC1)S(=O)(=O)c1cccc(C(F)(F)F)c1 [Compound 291, N-((1S,4S)-4-fluoro-4-(3-(trifluoromethyl)phenylsulfonyl)cyclohexyl)-2-methyl-2-(3-(trifluoromethyl)phenylsulfonyl)propanamide] | 6060 | > 10000 | 50
O=C(Nc1ccc(C(F)(F)F)cn1)[C@H]1C[C@H](S(=O)(=O)c2cccc(C(F)(F)F)c2)C1 [Compound 415, (1R,3R)-3-(3-(trifluoromethyl)phenylsulfonyl)-N-(5-(trifluoromethyl)pyridin-2-yl)cyclobutanecarboxamide] | > 10000 | > 10000 | 1760
CC(C)(C)NC(=O)CNC1(C)CCC(F)(S(=O)(=O)c2cccc(C(F)(F)F)c2)CC1 (stereo not drawn) [Compound 98, N-tert-butyl-2-(4-fluoro-1-methyl-4-(3-(trifluoromethyl)phenylsulfonyl)cyclohexylamino)acetamide] | > 10000 | > 10000 | 680
O=C(NC[C@H]1C[C@@H](S(=O)(=O)c2cccc(C(F)(F)F)c2)C1)c1ccnc(C(F)(F)F)n1 [Compound 383, 2-(trifluoromethyl)-N-(((1S,3S)-3-(3-(trifluoromethyl)phenylsulfonyl)cyclobutyl)methyl)pyrimidine-4-carboxamide] | 5950 | > 10000 | 1360
Cc1nc(C(F)(F)F)ccc1NC(=O)[C@H]1C[C@@H](S(=O)(=O)c2cccc(C(F)(F)F)c2)C1 [Compound 418, (1S,3S)-N-(2-methyl-6-(trifluoromethyl)pyridin-3-yl)-3-(3-(trifluoromethyl)phenylsulfonyl)cyclobutane carboxamide] | 2870 | > 10000 | 3500
CC1(NC(=O)c2ccc(F)c(Cl)c2)CCC(S(=O)(=O)c2cccc(C(F)(F)F)c2)CC1 (stereo not drawn) [Compound 310, 3-chloro-4-fluoro-N-(1-methyl-4-(3-(trifluoromethyl)phenylsulfonyl)cyclohexyl) benzamide] | 5710 | 6340 | 1160
O=C(N[C@H]1CC[C@@](F)(S(=O)(=O)c2cccc(C(F)(F)F)c2)CC1)[C@H]1C[C@@H]1c1ccccc1 [Compound 304, (1S,2S)-N-((1S,4R)-4-fluoro-4-(3-(trifluoromethyl)phenylsulfonyl)cyclohexyl)-2-phenylcyclopropane carboxamide] | 2440 | 1550 | 230
O=C(N[C@H]1CC[C@@](F)(S(=O)(=O)c2cccc(C(F)(F)F)c2)CC1)[C@@H]1CC[C@H](c2ccccc2)N1 [Compound 289] | 1040 | 1400 | 540
O=C(NC1CCC(S(=O)(=O)c2cccc(C(F)(F)F)c2)CC1)c1ccc(F)c(C(F)(F)F)c1 (stereo not drawn) [Compound 11, 4-fluoro-3-(trifluoromethyl)-N-(4-(3-(trifluoromethyl)phenylsulfonyl)cyclohexyl)benzamide] | > 10000 | > 10000 | 150
CC(C)(C)NC(=O)CNC1CCC(C)(S(=O)(=O)c2cccc(C(F)(F)F)c2)CC1 (stereo not drawn) [Compound 15, N-tert-butyl-2-(4-methyl-4-(3-(trifluoromethyl)phenylsulfonyl)cyclohexylamino)acetamide] | 4620 | > 10000 | 50
O=C(NC[C@H]1C[C@H](S(=O)(=O)c2cccc(C(F)(F)F)c2)C1)c1ccc(Cl)c(OC(F)(F)F)c1 [Compound 366, 4-chloro-3-(trifluoromethoxy)-N-(((1R,3R)-3-(3-(trifluoromethyl)phenylsulfonyl)cyclobutyl)methyl)benzamide] | > 10000 | > 10000 | 190
CC(C)(N)CN(C(=O)C(F)(F)F)[C@H]1CC[C@@](F)(S(=O)(=O)c2cccc(C(F)(F)F)c2)CC1 [Compound 306, N-(2-amino-2-methylpropyl)-2,2,2-trifluoro-N-((1S,4S)-4-tluoro-4-(3-(trifIuoromethyl)phenylsulfonyl)cyclohexyl) acetamide] | 7350 | 4960 | 530
O=C(N[C@H]1CC[C@H](S(=O)(=O)c2cccc(C(F)(F)F)c2)CC1)c1ccc(Cl)c(C(F)(F)F)c1 [Compound 125, 4-chloro-3-(trifluoromethyl)-N-((1R,4R)-4-(3-(trifluoromethyl)phenylsulfonyl)cyclohexyl)benzamide] | 2970 | 2910 | 900
O=C(N[C@H]1C[C@H](CS(=O)(=O)c2cccc(C(F)(F)F)c2)C1)c1ccc(F)c(C(F)(F)F)c1 [Compound 345, 4-fluoro-3-(trifluoromethyl)-N-((1R,3R)-3-((3-(trifluoromethyl)phenylsulfonyl)methyl)cyclobutyl)benzamide] | 1930 | 5530 | 580

Further molecules by falling IC50 [1], results first:

IC50 [1] [nM] | IC50 [2] [nM] | IC50 [3] [nM] | SMILES
1020 | 1880 | 390 | O=C(N[C@H]1CC[C@@H](CS(=O)(=O)c2cccc(C(F)(F)F)c2)CC1)c1ccc(Cl)c(OC(F)(F)F)c1 [Compound 139, 4-chloro-3-(trifluoromethoxy)-N-((1S,4S)-4-((3-(trifluoromethyl)phenylsulfonyl)methyl)cyclohexyl)benzamide]
940 | 2450 | 410 | CC1(NC(=O)CN[C@H]2CC[C@](F)(S(=O)(=O)c3cccc(C(F)(F)F)c3)CC2)CCC1 [Compound 91, 2-((1R,4R)-4-fluoro-4-(3-(trifluoromethyl)phenylsulfonyl)cyclohexylamino)-N-(1-methylcyclobutyl)acetamide]
940 | 430 | 290 | O=C(N[C@H]1CC[C@@H](S(=O)(=O)c2cccc(C(F)(F)F)c2)CC1)c1ccc(Cl)c(F)c1 [Compound 130, 4-chloro-3-fluoro-N-((1S,4S)-4-(3-(trifluoromethyl)phenylsulfonyl)cyclohexyl)benzamide]
710 | 2020 | 1250 | O=C(Nc1cncc(Cl)c1)[C@H]1C[C@@H](S(=O)(=O)c2cccc(C(F)(F)F)c2)C1 [Compound 420, (1S,3S)-N-(5-chloropyridin-3-yl)-3-(3-(trifluoromethyl)phenylsuIfonyl)cyclobutane carboxamide]
610 | 160 | 160 | O=C(N[C@H]1CC[C@@H](S(=O)(=O)c2cccc(C(F)(F)F)c2)CC1)c1ccc(F)c(Cl)c1 [Compound 131, 3-chloro-4-fluoro-N-((1S,4S)-4-(3-(trifluoromethyl)phenylsulfonyl)cyclohexyl)benzamide]
570 | 1180 | 420 | O=C1c2ccc(C(F)(F)F)nc2CN1[C@H]1CC[C@@](F)(S(=O)(=O)c2cccc(C(F)(F)F)c2)CC1 [Compound 290, 6-((1S,4S)-4-f1uoro-4-(3-(trifluoromethyl)phenylsulfonyl)cyclohexyl)-2-(trifluoromethyl)-6,dihydro-5Hpyrrolo[3,4-b]pyridin-5-one]
540 | 4520 | 1030 | O=C(N[C@H]1C[C@H](CS(=O)(=O)c2cccc(C(F)(F)F)c2)C1)c1ccc(F)c(Cl)c1 [Compound 348, 3-chloro-4-fluoro-N-((1R,3R)-3-((3-(trifluoromethyl)phenylsulfonyl)methyl)cyclobutyl)benzamide]
490 | 2630 | 790 | O=C(N[C@H]1CC[C@@](F)(S(=O)(=O)c2cccc(C(F)(F)F)c2)CC1)c1cnccc1C(F)(F)F [Compound 267]
480 | 820 | 260 | O=C(CN[C@H]1CC[C@@H](S(=O)(=O)c2cccc(C(F)(F)F)c2)CC1)NC1CCCCC1 [Compound 56, N-cyclohexyl-2-((1S,4S)-4-(3-(trifluoromethyl)phenylsulfonyl)cyclohexylamino)acetamide]
420 | 8000 | 2490 | Cn1nc(C(F)(F)F)cc1NC(=O)[C@H]1C[C@@H](S(=O)(=O)c2cccc(C(F)(F)F)c2)C1 [Compound 408, (1S,3S)-N-(1-methyl-3-(trifluoromethyl)-1H-pyrazol-5-yl)-3-(3-(trifluoromethyl)phenylsulfonyl)cyclobutane carboxamide]
330 | 1290 | 810 | CC(C)S(=O)(=O)c1cc(C(F)(F)F)cnc1C(=O)N[C@H]1C[C@H](S(=O)(=O)c2cccc(C(F)(F)F)c2)C1 [Compound 432, 3-(isopropylsulfonyl)-5-(trifluoromethyl)-N-((1R,3R)-3-(3-(trifluoromethyl)phenylsulfonyl)cyclobutyl) picolinamide]
210 | 640 | 730 | O=S(=O)(N[C@H]1CC[C@@](F)(S(=O)(=O)c2cccc(C(F)(F)F)c2)CC1)c1ccccc1C(F)(F)F [Compound 299, N-((1S,4S)-4-fluoro-4-(3-(trifluoromethyl)phenylsulfonyl)cyclohexyl)-2-(trifluoromethyl) benzenesulfonamide]
